Test results published in patent US11274095B2, “Modulators of methyl modifying enzymes, compositions and uses thereof” (Constellation Pharmaceuticals, Inc., priority 2018, dated 2022).

Key:
[1] = Cellular permeability in MDCK assay; format: in vitro ADME; conditions: dog, pH 7.4, MDCK II, with P-gp inhibitor GF120918 10 μM; for efflux ratio at 2.5 h, 2 μM: Papp(BA)/Papp(AB)
Description: Cell culture: MDCK II cells (obtained from Piet Borst at the Netherlands Cancer Institute) were seeded onto […] (PET) in 96-well BD insert systems at 2.5×10^5 cells/mL until to 4-7 days for confluent cell monolayer formation.
Experimental procedure: Test and reference compounds (nadolol, metoprolol and digoxin) were diluted with transport buffer (HBSS with 10mM Hepes, pH7.4) from stock solution to a concentration of 2 μM (<1% DMSO) and applied to the apical (A) or basolateral (B) side of the cell monolayer. Permeation of the test compounds from A to B direction or B to A direction was determined in duplicate with P-gp inhibitor (GF120918, 10 μM). Digoxin was tested at 10 μM from A to B direction or B to A direction with/without P-gp inhibitor (GF120918, 10 μM) as well, while nadolol and metoprolol were tested at 2 μM in A to B direction without P-gp inhibitor (GF120918, 10 μM) in duplicate. The plate was incubated for 2.5 hours in CO2 incubator at 37±1° C., with 5% CO2 at saturated humidity without shaking. In addition, the efflux ratio of each compound was also determined. Test and reference compounds were quantified by LC/MS/MS analysis based on the peak area ratio of analyte/IS. After transport assay, Lucifer yellow rejection assay are applied to determine the cell monolayer integrity. Buffers are removed from both apical and basolateral chambers, followed by the addition of 75 μL of 100 μM lucifer yellow in transport buffer and 250 μL transport buffer in apical and basolateral chambers, respectively. The plate is incubated for 30 minutes at 37° C. with 5% CO2 and 95% relative humidity without shaking. After 30 minutes incubation, 20 μL of lucifer yellow samples are taken from the apical sides, followed by the addition of 60 μL of Transport Buffer. And then 80 μL of lucifer yellow samples are taken from the basolateral sides. The relative fluorescence unit (RFU) of lucifer yellow is measured at 425/528 nm (excitation/emission) with a Molecular Device M2e plate reader.
Data analysis: The apparent permeability coefficient Papp (cm/s) was calculated using the equation: Papp=(dCr/dt)×Vr/(A×C0) Where dCr/dt is the cumulative concentration of compound in the receiver chamber as a function of time (μM/s); Vr is the solution volume in the receiver chamber (0.075 mL on the apical side, 0.25 mL on the basolateral side); A is the surface area for the transport, i.e. 0.0804 cm2 for the area of the monolayer; C0 is the initial concentration in the donor chamber (μM).
The efflux ratio was calculated using the equation: Efflux Ratio=Papp(BA)/Papp(AB) Percent recovery was calculated using the equation: % Recovery=100×[(Vr×Cr)+(Vd×Cd)]/(Vd×C0) Where Vd is the volume in the donor chambers (0.075 mL on the apical side, 0.25 mL on the basolateral side); Cd and Cr are the final concentrations of transport compound in donor and receiver chambers, respectively.
Percent of lucifer yellow in basolateral well is calculated using the equation:
[formula] where RFUApical and RFUBasolateral are the relative fluorescence unit values of lucifer yellow in the apical and basolateral wells, respectively; VApical and VBasolateral are the volume of apical and basolateral wells (0.075 mL and 0.25 mL), respectively. Percent lucifer yellow should be less than 2.

[2] = system: H3K27me3 in Hela cells; assay: H3K27me3 Alpha Hela Assay (AlphaLISA); format: cell-based; conditions: Homo sapiens, HeLa, 72 h
Description: H3K27me3 Alpha Hela Assay (AlphaLISA). Ten different doses of each test compound (in a series of 3-fold dilutions) were plated in duplicate 384-well tissue culture treated plates (Catalog #6007680; Perkin Elmer, Waltham, Mass.). Hela cells grown in culture were trypsinized and counted using a Countess® cell counter (Catalog #C10281; Life Technologies, Grand Island, N.Y.). Cell were diluted to 67,000 cells per mL in10% DMEM (Catalog #10569-010 Life Technologies, Grand Island, N.Y.) and 15 μL (1,000 cells) were plated into each well using the Biotek MicroFlo™ Select Dispenser (BioTek Instruments, Inc. Vermont, USA),) of the 384-well plate. Plates were incubated at 37° C./5% CO2 for 72 hrs. One of the duplicate plates was processed for HeLa assay and the other for viability. 5 μL of Cell-Histone Lysis buffer (1×) (Catalog #AL009F1 Perkin Elmer; Waltham, Mass.) per well was added to the plate processed for AlphaLISA and the plate was incubated at RT for 30 minutes on a plate shaker with low speed (Model# 4625-Q Thermo Scientific; Waltham, Mass.). Then, 10 μL per well Histone Extraction buffer (catalog #AL009F2; Perkin Elmer; Waltham, Mass.) was added and the plate further incubated at RT for 20 min on plate shaker with low speed. Next, 10 μL of 5× mix of anti-K27me3 acceptor beads plus Biotinylated anti-Histone H3 (C-ter) Antibody (diluted to 3 nM final) (Catalog #AL118 Perkin Elmer; Waltham, Mass.) was added in each well. Dilution of the acceptor beads and anti-Histone H3 was done in 1× Histone Detection buffer (Catalog #AL009F3 Perkin Elmer; Waltham, Mass.) which was produced by diluting the 10× stock provided. The plate was sealed with an aluminum plate sealer and incubated at 23° C. for 60 min. Next, 10 μL 5× solution of Streptavidin Donor beads were added (Catalog #6760002 Perkin Elmer; Waltham, Mass.) (20 μg/mL final in 1× Histone Detection Buffer), =plate was sealed with Aluminum plate sealer and incubated at 23° C. for 30 min. The plates were then read using an EnVision-Alpha Reader (model #2104 Perkin Elmer; Waltham, Mass.). […]

| Papp at 2.5 h, 2 μM [1] | efflux ratio at 2.5 h, 2 μM [1] | EC50 [2] | Structure (SMILES) |
| --- | --- | --- | --- |
| 6.1 ×10⁻⁶ cm/s | 0.9 | 0.52 nM | Cc1cc(Cl)c(CNC(=O)c2cc(Cl)c3c(c2C)OC(C)(C2CCC(N4CC(OC5CC5)C4)CC2)O3)c(=O)[nH]1 (single isomer, unassigned) [Example 8, 7-chloro-N-((4-chloro-6-methyl-2-oxo-1,2-dihydropyridin-3-yl)methyl)-2-(4-(3-cyclopropoxyazetidin-1-yl)cyclohexyl)-2,4-dimethylbenzo[d][1,3]dioxole-5-carboxamide] |
| 3.8 ×10⁻⁶ cm/s | 1.4 | 0.61 nM | CSc1cc(C)[nH]c(=O)c1CNC(=O)c1cc(Cl)c2c(c1C)OC(C)(C1CCC(N3CC(OC4CC4)C3)CC1)O2 (single isomer, unassigned) [Example 9] |
| 6.5 ×10⁻⁶ cm/s | 0.69 | 1.9 nM | CSc1nc(C)[nH]c(=O)c1CNC(=O)c1cc(Cl)c2c(c1C)OC(C)(C1CCC(N3CC(OC(F)F)C3)CC1)O2 (single isomer, unassigned) [Example 10] |
| 6.3 ×10⁻⁶ cm/s | 1.2 | 0.59 nM | CSc1cc(C)[nH]c(=O)c1CNC(=O)c1cc(Cl)c2c(c1C)OC(C)(C1CCC(N3CC(F)C3)CC1)O2 (single isomer, unassigned) [Example 12] |
| 8.9 ×10⁻⁶ cm/s | 0.64 | 0.81 nM | Cc1cc(Cl)c(CNC(=O)c2cc(Cl)c3c(c2C)OC(C)(C2CCC(N4CC(OC(F)F)C4)CC2)O3)c(=O)[nH]1 (single isomer, unassigned) [Example 13] |
| 2.5 ×10⁻⁶ cm/s | 1.8 | 0.33 nM | COC1CN(C2CCC(C3(C)Oc4c(Cl)cc(C(=O)NCc5c(SC)cc(C)[nH]c5=O)c(C)c4O3)CC2)C1 (single isomer, unassigned) [Example 17, 7-chloro-2-(4-(3-methoxyazetidin-1-yl)cyclohexyl)-2,4-dimethyl-N-((6-methyl-4-(methylthio)-2-oxo-1,2-dihydropyridin-3-yl)methyl)benzo[d][1,3]dioxole-5-carboxamide] |

| Structure (SMILES) | Papp at 2.5 h, 2 μM [1] | efflux ratio at 2.5 h, 2 μM [1] | EC50 [2] |
| --- | --- | --- | --- |
| CSc1cc(C)[nH]c(=O)c1CNC(=O)c1cc(Cl)c2c(c1C)OC(C)(C1CCC(N3CC(OC(F)F)C3)CC1)O2 (single isomer, unassigned) [Example 1, 7-chloro-2-(4-(3-(difluoromethoxy)azetidin-1-yl)cyclohexyl)-2,4-dimethyl-N-((6-methyl-4-(methylthio)-2-oxo-1,2-dihydropyridin-3-yl)methyl)benzo[d][1,3]dioxole-5-carboxamide] | 5.6 ×10⁻⁶ cm/s | 0.79 | 0.52 nM |
